The values that follow come from patent US9688710B2, “Inhibitors of sodium glucose cotransporter 1” (LEXICON PHARMACEUTICALS, INC., priority 2012, dated 2017).

Assay [1] addresses Human sodium/glucose co-transporter type 2 (SGLT2) (Homo sapiens (Human), UniProt P31639). Kind of assay: In vitro human SGLT2 inhibition assay (14C-AMG uptake). Format: cell-based. The note with it: HEK293 cells expressing human HA-SGLT2, 14C-AMG uptake. On the procedure: Human sodium/glucose co-transporter type 2 (SGLT2; accession number P31639; GI:400337) was cloned into pIRESpuro2 vector for mammalian expression (construct: HA-SGLT2-pIRESpuro2).
HEK293 cells were transfected with the human HA-SGLT2-pIRESpuro2 vector and the bulk stable cell line was selected in presence of 0.5 μg/mL of puromycin. Human HA-SGLT2 cells were maintained in DMEM media containing 10% FBS, 1% GPS and 0.5 μg/mL of puromycin.
The HEK293 cells expressing the human HA-SGLT2 were seeded in 384 well plates (30,000 cells/well) in DMEM media containing 10% FBS, 1% GPS and 0.5 μg/mL of puromycin, then incubated overnight at 37 C, 5% CO2. Cells were then washed with uptake buffer (140 mM NaCl, 2 mM KCl, 1 mM CaCl2, 1 mM MgCl2, 10 mM HEPES, 5 mM Tris, 1 mg/mL bovine serum albumin (BSA), pH 7.3). Twenty microliters of uptake buffer with or without testing compounds were added to the cells. Then, 20 microliters of uptake buffer containing ^14C-AMG (100 nCi) were added to the cells. The cell plates were incubated at 37° C., 5% CO2 for 1-2 hours. After washing the cells with uptake buffer, scintillation fluid was added (40 microliters/well) and ^14C-AMG uptake was measured by counting radioactivity using a scintillation coulter (TopCoulter NXT; Packard Instruments).

Assay [2] concerns the target Human sodium/glucose co-transporter type 1 (SGLT1) (Homo sapiens (Human), UniProt P13866). Kind of assay: In vitro human SGLT1 inhibition assay (14C-AMG uptake). It counts as cell-based. Further details: key to SGLT1 (human SGLT1 IC50): ***: a value less than 0.01 μM; **: a value less than 0.1 μM; *: a value less than 1 μM; —: a value not measured or exceeding μM. The note with it: HEK293 cells expressing human HA-SGLT1, 14C-AMG uptake. On the procedure:
Human sodium/glucose co-transporter type 1 (SGLT1; accession number NP_000334; GI: 4507031) was cloned into pIRESpuro2 vector for mammalian expression (construct: HA-SGLT1-pIRESpuro2).
HEK293 cells were transfected with the human HA-SGLT1-pIRESpuro2 vector and the bulk stable cell line was selected in presence of 0.5 μg/mL of puromycin. Human HA-SGLT1 cells were maintained in DMEM media containing 10% FBS, 1% GPS and 0.5 μg/mL of puromycin.
The HEK293 cells expressing the human HA-SGLT1 were seeded in 384 well plates (30,000 cells/well) in DMEM media containing 10% FBS, 1% GPS and 0.5 μg/mL of puromycin, then incubated overnight at 37 C, 5% CO2. Cells were then washed with uptake buffer (140 mM NaCl, 2 mM KCl, 1 mM CaCl2, 1 mM MgCl2, 10 mM HEPES, 5 mM Tris, 1 mg/mL bovine serum albumin (BSA), pH 7.3). Twenty microliters of uptake buffer with or without testing compounds were added to the cells. Then, 20 microliters of uptake buffer containing ^14C-AMG (100 nCi) were also added to cells. The cell plates were incubated at 37° C., 5% CO2 for 1-2 hours. After washing the cells with uptake buffer, scintillation fluid was added (40 microliters/well) and ^14C-AMG uptake was measured by counting radioactivity using a scintillation coulter (TopCoulter NXT; Packard Instruments).

SMILES strings stand for the structures. A value given as a limit tells only on which side of the number the result lay.

Human sodium/glucose co-transporter type 2 (SGLT2), sequence (P31639 whole entry): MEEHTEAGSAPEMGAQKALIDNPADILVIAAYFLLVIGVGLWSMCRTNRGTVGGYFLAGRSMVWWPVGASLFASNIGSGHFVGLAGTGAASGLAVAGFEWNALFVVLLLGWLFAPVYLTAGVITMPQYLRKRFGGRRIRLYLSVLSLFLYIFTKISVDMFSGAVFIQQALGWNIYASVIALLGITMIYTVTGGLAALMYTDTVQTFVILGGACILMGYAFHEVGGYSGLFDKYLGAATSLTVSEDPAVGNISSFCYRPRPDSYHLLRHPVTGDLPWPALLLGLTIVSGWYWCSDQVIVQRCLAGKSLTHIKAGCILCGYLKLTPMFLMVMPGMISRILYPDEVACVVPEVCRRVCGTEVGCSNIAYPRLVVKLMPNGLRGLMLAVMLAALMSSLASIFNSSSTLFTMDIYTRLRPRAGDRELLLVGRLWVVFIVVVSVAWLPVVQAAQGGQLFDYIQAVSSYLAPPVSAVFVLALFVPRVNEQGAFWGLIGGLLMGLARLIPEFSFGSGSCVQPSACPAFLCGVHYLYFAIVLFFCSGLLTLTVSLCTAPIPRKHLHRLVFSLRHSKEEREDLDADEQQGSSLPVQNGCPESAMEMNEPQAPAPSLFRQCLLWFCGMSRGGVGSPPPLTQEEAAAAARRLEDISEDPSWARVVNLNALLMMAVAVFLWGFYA
Human sodium/glucose co-transporter type 1 (SGLT1), sequence (P13866 whole entry): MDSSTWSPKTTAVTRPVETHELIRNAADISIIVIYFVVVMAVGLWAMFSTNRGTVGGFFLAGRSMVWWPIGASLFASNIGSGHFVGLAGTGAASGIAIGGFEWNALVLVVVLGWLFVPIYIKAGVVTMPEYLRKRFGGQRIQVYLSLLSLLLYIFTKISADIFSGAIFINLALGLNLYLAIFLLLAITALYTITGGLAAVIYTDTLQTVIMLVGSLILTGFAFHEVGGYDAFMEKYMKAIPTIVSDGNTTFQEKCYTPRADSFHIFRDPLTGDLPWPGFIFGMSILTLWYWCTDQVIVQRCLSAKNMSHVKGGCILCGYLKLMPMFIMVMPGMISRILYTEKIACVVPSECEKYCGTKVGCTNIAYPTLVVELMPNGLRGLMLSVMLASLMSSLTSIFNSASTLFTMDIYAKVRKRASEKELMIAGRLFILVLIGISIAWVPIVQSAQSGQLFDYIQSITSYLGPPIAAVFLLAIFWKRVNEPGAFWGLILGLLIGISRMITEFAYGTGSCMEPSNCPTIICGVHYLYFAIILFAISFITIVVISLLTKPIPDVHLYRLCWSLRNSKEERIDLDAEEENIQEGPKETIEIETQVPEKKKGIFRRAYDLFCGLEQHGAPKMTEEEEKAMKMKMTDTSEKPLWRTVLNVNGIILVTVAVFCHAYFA

One may read the IC50 as the concentration needed to halve the response being measured. Consider `CS[C@H]1O[C@@H](c2ccc(C)c(Cc3ccc(OCCCNCC(C)(C)CN(C)C)cc3)c2)[C@H](O)[C@@H](O)[C@@H]1O` [(2S,3R,4R,5S,6R)-2-(3-(4-(3-((3-(dimethylamino)-2,2-dimethylpropyl)amino)propoxy)benzyl)-4-methylphenyl)-6-(methylthio)tetrahydro-2H-pyran-3,4,5-triol], for which the IC50 in assay [1] and in assay [2] was less than 0.01 µM in each case.

As for `CS[C@H]1O[C@@H](c2ccc(C)c(Cc3ccc(CCCCNC(=O)C(C)(C)CO)cc3)c2)[C@H](O)[C@@H](O)[C@@H]1O` [3-hydroxy-2,2-dimethyl-N-(4-(4-(2-methyl-5-((2S,3R,4R,5S,6R)-3,4,5-trihydroxy-6-(methylthio)tetrahydro-2H-pyran-2-yl)benzyl)phenyl)butyl)propanamide], the IC50 in assay [1] and in assay [2] was less than 0.01 µM each time.

In the case of `CS[C@H]1O[C@@H](c2ccc(C)c(Cc3ccc(CCCCCNCc4ccccc4)cc3)c2)[C@H](O)[C@@H](O)[C@@H]1O` [(2S,3R,4R,5S,6R)-2-(3-(4-(5-(benzylamino)pentyl)benzyl)-4-methylphenyl)-6-(methylthio)tetrahydro-2H-pyran-3,4,5-triol], the IC50 in assay [1] is less than 0.01 µM; in assay [2], less than 0.1 µM.

For the molecule `CS[C@H]1O[C@@H](c2ccc(C)c(Cc3ccc(CCCCCNC(=O)NC(C)(C)C(N)=O)cc3)c2)[C@H](O)[C@@H](O)[C@@H]1O` [2-methyl-2-(3-(5-(4-(2-methyl-5-((2S,3R,4R,5S,6R)-3,4,5-trihydroxy-6-(methylthio)tetrahydro-2H-pyran-2-yl)benzyl)phenyl)pentyl)ureido)propanamide], the IC50 in assay [1] was less than 0.01 µM; in assay [2], less than 0.1 µM.

As to `CS[C@H]1O[C@@H](c2ccc(C)c(Cc3ccc(OCCCC(=O)NC(C)(C)C(=O)NC4CCN(C)CC4)cc3)c2)[C@H](O)[C@@H](O)[C@@H]1O` [N-(2-methyl-1-((1-methylpiperidin-4-yl)amino)-1-oxopropan-2-yl)-4-(4-(2-methyl-5-((2S,3R,4R,5S,6R)-3,4,5-trihydroxy-6-(methylthio)tetrahydro-2H-pyran-2-yl)benzyl)phenoxy)butanamide], the IC50 in assay [1] and in assay [2] was less than 0.01 µM each time.

As to `CS[C@H]1O[C@@H](c2ccc(C)c(Cc3ccc(CCCCNC4(C(N)=O)CCCC4)cc3)c2)[C@H](O)[C@@H](O)[C@@H]1O` [1-((4-(4-(2-methyl-5-((2S,3R,4R,5S,6R)-3,4,5-trihydroxy-6-(methylthio)tetrahydro-2H-pyran-2-yl)benzyl)phenyl)butyl)amino)cyclopentanecarboxamide], the IC50 is less than 0.01 µM in assay [1] and less than 0.1 µM in assay [2].

On to `CS[C@H]1O[C@@H](c2ccc(Cl)c(Cc3ccc(OCCCC(=O)NC(C)(C)C(=O)O)cc3)c2)[C@H](O)[C@@H](O)[C@@H]1O` [2-(4-(4-(2-chloro-5-((2S,3R,4R,5S,6R)-3,4,5-trihydroxy-6-(methylthio)tetrahydro-2H-pyran-2-yl)benzyl)phenoxy)butanamido)-2-methylpropanoic acid], for which the IC50 in assay [1] was less than 0.1 µM. Besides, the “SGLT1 (human SGLT1 IC50)” value in assay [2] is reported as “—”.

Regarding `CS[C@H]1O[C@@H](c2ccc(C)c(Cc3ccc(CCCc4nnnn4CC(=O)N4CCN(C)CC4)cc3)c2)[C@H](O)[C@@H](O)[C@@H]1O` [2-(5-(3-(4-(2-methyl-5-((2S,3R,4R,5S,6R)-3,4,5-trihydroxy-6-(methylthio)tetrahydro-2H-pyran-2-yl)benzyl)phenyl)propyl)-1H-tetrazol-1-yl)-1-(4-methylpiperazin-1-yl)ethanone], the IC50 in assay [1] and in assay [2] was less than 0.01 µM throughout.

Turning to `CS[C@H]1O[C@@H](c2ccc(Cl)c(Cc3ccc(OCCCC(=O)N(C)C(C)(C)C(N)=O)cc3)c2)[C@H](O)[C@@H](O)[C@@H]1O` [N-(1-amino-2-methyl-1-oxopropan-2-yl)-4-(4-(2-chloro-5-((2S,3R,4R,5S,6R)-3,4,5-trihydroxy-6-(methylthio)tetrahydro-2H-pyran-2-yl)benzyl)phenoxy)-N-methylbutanamide], the IC50 in assay [1] and in assay [2] was less than 0.01 µM each time.

Take `CS[C@H]1O[C@@H](c2ccc(Cl)c(Cc3ccc(OCCNC(=O)NC(C)(C)CO)cc3)c2)[C@H](O)[C@@H](O)[C@@H]1O` [1-(2-(4-(2-chloro-5-((2S,3R,4R,5S,6R)-3,4,5-trihydroxy-6-(methylthio)tetrahydro-2H-pyran-2-yl)benzyl)phenoxy)ethyl)-3-(1-hydroxy-2-methylpropan-2-yl)urea]: the IC50 in assay [1] and in assay [2] was less than 0.01 µM in each case.

On to `CS[C@H]1O[C@@H](c2ccc(C)c(Cc3ccc(/C=C/C(=O)N4CCN(C)CC4)cc3)c2)[C@H](O)[C@@H](O)[C@@H]1O` [(E)-3-(4-(2-methyl-5-((2S,3R,4R,5S,6R)-3,4,5-trihydroxy-6-(methylthio)tetrahydro-2H-pyran-2-yl)benzyl)phenyl)-1-(4-methylpiperazin-1-yl)prop-2-en-1-one], for which the IC50 in assay [1] was less than 0.01 µM; in assay [2], less than 0.1 µM.

Regarding `CS[C@H]1O[C@@H](c2ccc(Cl)c(Cc3ccc(OCCCC(=O)N(CCO)CCO)cc3)c2)[C@H](O)[C@@H](O)[C@@H]1O` [4-(4-(2-chloro-5-((2S,3R,4R,5S,6R)-3,4,5-trihydroxy-6-(methylthio)tetrahydro-2H-pyran-2-yl)benzyl)phenoxy)-N,N-bis(2-hydroxyethyl)butanamide], the values for the IC50 in assay [1] and in assay [2] were less than 0.01 µM and less than 0.1 µM, respectively.

For `CS[C@H]1O[C@@H](c2ccc(C)c(Cc3ccc(CCCC(=O)NC(C)(C)C(=O)N(C)CCN(C)C)cc3)c2)[C@H](O)[C@@H](O)[C@@H]1O` [N-(1-((2-(dimethylamino)ethyl)(methyl)amino)-2-methyl-1-oxopropan-2-yl)-4-(4-(2-methyl-5-((2S,3R,4R,5S,6R)-3,4,5-trihydroxy-6-(methylthio)tetrahydro-2H-pyran-2-yl)benzyl)phenyl)butanamide], the IC50 in assay [1] and in assay [2] was less than 0.01 µM throughout.

`CS[C@H]1O[C@@H](c2ccc(C)c(Cc3ccc(CCCC(=O)NCC(=O)N4CCN(C)CC4)cc3)c2)[C@H](O)[C@@H](O)[C@@H]1O` [4-(4-(2-methyl-5-((2S,3R,4R,5S,6R)-3,4,5-trihydroxy-6-(methylthio)tetrahydro-2H-pyran-2-yl)benzyl)phenyl)-N-(2-(4-methylpiperazin-1-yl)-2-oxoethyl)butanamide]: the IC50 in assay [1] and in assay [2] was less than 0.01 µM throughout.

The molecule `CS[C@H]1O[C@@H](c2ccc(C)c(Cc3ccc(CCCC#N)cc3)c2)[C@H](O)[C@@H](O)[C@@H]1O` [4-(4-(2-methyl-5-((2S,3R,4R,5S,6R)-3,4,5-trihydroxy-6-(methylthio)tetrahydro-2H-pyran-2-yl)benzyl)phenyl)butanenitrile] had an IC50 in assay [1] of less than 0.1 µM. The “SGLT1 (human SGLT1 IC50)” value in assay [2] is reported as “—”.

`CS[C@H]1OC(c2ccc(C)c(Cc3ccc(OCCCNC(CO)CO)cc3)c2)[C@H](O)[C@@H](O)[C@@H]1O` (stereo partly drawn) [(3R,4R,5S,6R)-2-(3-(4-(3-((1,3-dihydroxypropan-2-yl)amino)propoxy)benzyl)-4-methylphenyl)-6-(methylthio)tetrahydro-2H-pyran-3,4,5-triol]: the IC50 in assay [1] and in assay [2] was less than 0.01 µM throughout.

`CS[C@H]1O[C@@H](c2ccc(C)c(Cc3ccc(CCCCNCC(C)(C)C(=O)N4CCN(C)CC4)cc3)c2)[C@H](O)[C@@H](O)[C@@H]1O` [2,2-dimethyl-3-((4-(4-(2-methyl-5-((2S,3R,4R,5S,6R)-3,4,5-trihydroxy-6-(methylthio)tetrahydro-2H-pyran-2-yl)benzyl)phenyl)butyl)amino)-1-(4-methylpiperazin-1-yl)propan-1-one]: the IC50 in assay [1] and in assay [2] was less than 0.01 µM throughout.
